Laboratory results as given in ChEMBL document CHEMBL3817758, “Design and synthesis of dual 5-HT1A and 5-HT7 receptor ligands” (Bioorg Med Chem, 2016).

What was measured:
Assay in all cases: biochemical
[1] = target: T1, 5-hydroxytryptamine receptor 2C (Rattus norvegicus, UniProt P08909)
T1 sequence (P08909 whole entry): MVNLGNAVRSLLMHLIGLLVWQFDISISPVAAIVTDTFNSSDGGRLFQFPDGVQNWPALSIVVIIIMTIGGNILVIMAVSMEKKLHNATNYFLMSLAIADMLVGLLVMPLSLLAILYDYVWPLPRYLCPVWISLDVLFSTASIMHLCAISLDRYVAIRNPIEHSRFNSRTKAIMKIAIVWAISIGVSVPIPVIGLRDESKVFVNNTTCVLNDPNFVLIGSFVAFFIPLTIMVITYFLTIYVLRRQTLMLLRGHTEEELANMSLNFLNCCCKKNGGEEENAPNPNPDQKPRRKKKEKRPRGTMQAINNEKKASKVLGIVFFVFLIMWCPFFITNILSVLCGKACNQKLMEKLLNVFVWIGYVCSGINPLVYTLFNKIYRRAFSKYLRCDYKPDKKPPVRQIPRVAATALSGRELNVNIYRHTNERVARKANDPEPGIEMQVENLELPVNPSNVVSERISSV

[2] = target: T2, D(4) dopamine receptor (Rattus norvegicus, UniProt P30729)
T2 sequence (P30729 whole entry): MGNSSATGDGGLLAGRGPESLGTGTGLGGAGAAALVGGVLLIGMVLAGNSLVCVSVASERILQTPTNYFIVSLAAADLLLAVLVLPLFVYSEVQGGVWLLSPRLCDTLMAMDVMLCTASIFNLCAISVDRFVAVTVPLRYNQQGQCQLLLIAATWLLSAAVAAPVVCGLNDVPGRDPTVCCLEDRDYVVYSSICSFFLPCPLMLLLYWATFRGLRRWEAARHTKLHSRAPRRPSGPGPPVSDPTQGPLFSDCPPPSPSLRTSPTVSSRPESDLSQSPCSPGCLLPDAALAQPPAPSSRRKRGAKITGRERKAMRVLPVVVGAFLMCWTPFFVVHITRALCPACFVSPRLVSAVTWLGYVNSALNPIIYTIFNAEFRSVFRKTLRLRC

[3] = target: D(2) dopamine receptor (Homo sapiens, UniProt P14416)
[4] = target: Sodium-dependent serotonin transporter (Homo sapiens, UniProt P31645)
Sequence of Sodium-dependent serotonin transporter (P31645 whole entry): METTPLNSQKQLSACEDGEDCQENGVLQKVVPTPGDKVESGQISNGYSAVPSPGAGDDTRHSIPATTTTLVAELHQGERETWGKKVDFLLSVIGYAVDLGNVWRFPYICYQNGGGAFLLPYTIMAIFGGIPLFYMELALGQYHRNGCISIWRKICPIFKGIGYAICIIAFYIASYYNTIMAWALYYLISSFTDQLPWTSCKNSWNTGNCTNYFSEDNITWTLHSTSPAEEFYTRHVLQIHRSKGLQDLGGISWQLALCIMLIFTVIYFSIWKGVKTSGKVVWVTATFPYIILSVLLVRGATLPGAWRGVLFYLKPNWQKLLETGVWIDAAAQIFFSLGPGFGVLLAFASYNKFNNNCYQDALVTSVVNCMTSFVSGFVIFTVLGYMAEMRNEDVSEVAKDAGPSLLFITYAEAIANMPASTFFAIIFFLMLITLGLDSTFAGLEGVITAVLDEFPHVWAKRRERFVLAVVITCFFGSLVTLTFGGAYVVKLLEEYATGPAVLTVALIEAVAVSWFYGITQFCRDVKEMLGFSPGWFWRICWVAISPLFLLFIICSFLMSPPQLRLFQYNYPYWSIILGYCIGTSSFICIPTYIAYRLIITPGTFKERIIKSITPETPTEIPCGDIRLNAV

Sequence of D(2) dopamine receptor (P14416 whole entry): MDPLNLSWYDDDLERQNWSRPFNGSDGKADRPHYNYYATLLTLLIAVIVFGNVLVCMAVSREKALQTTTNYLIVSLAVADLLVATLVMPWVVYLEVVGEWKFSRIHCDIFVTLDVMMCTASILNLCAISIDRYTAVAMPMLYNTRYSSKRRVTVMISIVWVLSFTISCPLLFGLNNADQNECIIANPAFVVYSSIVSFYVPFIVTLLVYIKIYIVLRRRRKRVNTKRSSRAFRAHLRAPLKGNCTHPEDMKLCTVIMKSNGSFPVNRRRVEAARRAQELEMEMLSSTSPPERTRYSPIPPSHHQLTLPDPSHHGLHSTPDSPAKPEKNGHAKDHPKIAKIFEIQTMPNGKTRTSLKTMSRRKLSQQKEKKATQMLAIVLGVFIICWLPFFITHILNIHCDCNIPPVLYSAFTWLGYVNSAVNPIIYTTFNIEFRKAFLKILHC

Row | SMILES | Ki [1] [nM] | Ki [2] [nM] | Ki [3] [nM] | Ki [4] [nM]
1 | COc1ccc(C(=O)CCCN2CCc3ccccc3C2)cc1 | 1400 | – | – | –
2 | O=C1c2ccccc2C(=O)N1CCCCN1CCC2CCCCC2C1 (stereo not given) | – | > 10000 | > 10000 | > 10000
3 | NC(=O)c1ccc(C(=O)CCCN2CCc3ccccc3C2)cc1 | 1890 | – | – | –
